Assay results published in US20170157143A1, “NORPREGNANE DERIVATIVES FOR THE RISK REDUCTION OF BREAST CANCER” (Helix Twelve Pharmaceuticals Corporation, Inc., priority 2015, published 2017).

How the values were obtained:
breast carcinoma = experiment: HLX-801 prophylactic therapy against breast cancer in at-risk subject groups compared to tamoxifen; assay type: in vivo, human
Protocol: Table 1: Exemplary effect of HLX-801 prophylactic therapy against breast cancer cells in at-risk subject groups compared to Tamoxifen (“TAM”) 1 mg.

[1] = Side effect profile of HLX-801; settings: in vivo
Description: The compounds are associated with the absence of the side effects that currently limit the adoption of the currently available tamoxifen and aromatase inhibition approaches by at risk individuals.

breast cancer = settings: DCIS patients; cited from earlier work

SMILES: CCN(CC)Cc1ccc(OCC[C@H]2CCC3C4[C@H](C)Cc5cc(O)ccc5[C@H]4CC[C@@]32C)c(OC)c1 (stereo partly drawn) [HLX-801, (7α)-21-[4-[(diethylamino)methyl]-2-methoxyphenoxy]-7-methyl-19-norpregna-1,3,5(10)-trien-3-ol 2-hydroxy-1,2,3-propanetricarboxylate]
- No. of subjects developing breast carcinoma (breast carcinoma; HLX-801 1 mg, patients group 7/17): 3
- No. of subjects developing breast carcinoma (breast carcinoma; HLX-801 1 mg, patients group 7/21): 2
- No. of subjects developing breast carcinoma (breast carcinoma; HLX-801 1 mg, patients group 7/24): 3
- No. of subjects developing breast carcinoma (breast carcinoma; HLX-801 5 mg, patients group 7/17): 1
- No. of subjects developing breast carcinoma (breast carcinoma; HLX-801 5 mg, patients group 7/21): 2
- No. of subjects developing breast carcinoma (breast carcinoma; HLX-801 5 mg, patients group 7/24): 2
- No. of subjects developing breast carcinoma (breast carcinoma; HLX-801 10 mg, patients group 7/17): 1
- No. of subjects developing breast carcinoma (breast carcinoma; HLX-801 10 mg, patients group 7/21): 1
- No. of subjects developing breast carcinoma (breast carcinoma; HLX-801 10 mg, patients group 7/24): 1
- No. of subjects developing breast carcinoma (breast carcinoma; HLX-801 20 mg, patients group 7/17): 1
- No. of subjects developing breast carcinoma (breast carcinoma; HLX-801 20 mg, patients group 7/21): 1
- No. of subjects developing breast carcinoma (breast carcinoma; HLX-801 20 mg, patients group 7/24): 1
- No. of subjects developing breast carcinoma (breast carcinoma; HLX-801 40 mg, patients group 7/17): 1
- No. of subjects developing breast carcinoma (breast carcinoma; HLX-801 40 mg, patients group 7/21): 1
- No. of subjects developing breast carcinoma (breast carcinoma; HLX-801 40 mg, patients group 7/24): 1
- No. of subjects developing breast carcinoma (breast carcinoma; HLX-801 80 mg, patients group 7/17): 1
- No. of subjects developing breast carcinoma (breast carcinoma; HLX-801 80 mg, patients group 7/21): 1
- No. of subjects developing breast carcinoma (breast carcinoma; HLX-801 80 mg, patients group 7/24): 1
- bone loss (long-term risk of fractures) [1]: no evidence of bone loss
- muscle aches [1]: no reports of muscle aches
- uterine thickening (indicator of risk for treatment-induced uterine cancer) [1]: no evidence of uterine thickening
- venous thrombembolism (indicator of risk for stroke) [1]: no evidence of venous thrombembolism

SMILES: CC/C(=C(\c1ccccc1)c1ccc(OCCN(C)C)cc1)c1ccccc1 [TAM, Tamoxifen, reference compound]
- reduction of the risk to progression to breast cancer (breast cancer): 30%
- No. of subjects developing breast carcinoma (breast carcinoma; TAM 1 mg, patients group 7/17): 12
- No. of subjects developing breast carcinoma (breast carcinoma; TAM 1 mg, patients group 7/21): 11
- No. of subjects developing breast carcinoma (breast carcinoma; TAM 1 mg, patients group 7/24 (# of cohorts/# of subjects per cohort)): 12
